Assay [1] deals with human prostate LNCap tumor cell line. The experiment in a line: In vitro cell culture growth assay (MTS), LNCap. The note with it: Homo sapiens, LNCaP, 72 h, read-out: IC50 LNCap.
For a further assay, the target named is PI3K-α (Homo sapiens, UniProt P42336). The experiment in a line: PI3K-alpha fluorescence polarization assay. The note with it: read-out: IC50 PI3Kα. (In general: In fluorescence polarisation assays a small probe gives low polarisation when free and higher when bound to something large.)
Another assay addresses Human mTOR (FLAG-TOR) (Homo sapiens, UniProt P42345). The experiment in a line: mTOR kinase assay (DELFIA format, purified enzyme). The format is biochemical. The note with it: read-out: IC50 mTOR.
Assay [2] has as its system human prostate PC3-mm2 tumor cell line. Briefly: In vitro cell culture growth assay (MTS), PC3-mm2. The format is cell-based. The note with it: Homo sapiens, PC3MM2, 72 h, PC3-mm2 cells, MTS, three days after drug treatment; read-out: IC50 PC3-mm2.
Assay [3] deals with human breast MDA-MB-361 tumor cell line. The experiment in a line: In vitro cell culture growth assay (MTS), MDA-MB-361. The format is cell-based. The note with it: Homo sapiens, MDA-MB-361 cells, MTS, three days after drug treatment, read-out: IC50 MDA-MB-361.
For a further assay, the target named is PI3K-γ (Homo sapiens, UniProt P48736). The experiment in a line: PI3K-gamma fluorescence polarization assay. The note with it: read-out: IC50 PI3Kγ.

Structures are written as SMILES. Read-outs that look alike come from different tables or passages of the source.

Sequence of Human mTOR (FLAG-TOR) (P42345 1360-2549 limits assumed): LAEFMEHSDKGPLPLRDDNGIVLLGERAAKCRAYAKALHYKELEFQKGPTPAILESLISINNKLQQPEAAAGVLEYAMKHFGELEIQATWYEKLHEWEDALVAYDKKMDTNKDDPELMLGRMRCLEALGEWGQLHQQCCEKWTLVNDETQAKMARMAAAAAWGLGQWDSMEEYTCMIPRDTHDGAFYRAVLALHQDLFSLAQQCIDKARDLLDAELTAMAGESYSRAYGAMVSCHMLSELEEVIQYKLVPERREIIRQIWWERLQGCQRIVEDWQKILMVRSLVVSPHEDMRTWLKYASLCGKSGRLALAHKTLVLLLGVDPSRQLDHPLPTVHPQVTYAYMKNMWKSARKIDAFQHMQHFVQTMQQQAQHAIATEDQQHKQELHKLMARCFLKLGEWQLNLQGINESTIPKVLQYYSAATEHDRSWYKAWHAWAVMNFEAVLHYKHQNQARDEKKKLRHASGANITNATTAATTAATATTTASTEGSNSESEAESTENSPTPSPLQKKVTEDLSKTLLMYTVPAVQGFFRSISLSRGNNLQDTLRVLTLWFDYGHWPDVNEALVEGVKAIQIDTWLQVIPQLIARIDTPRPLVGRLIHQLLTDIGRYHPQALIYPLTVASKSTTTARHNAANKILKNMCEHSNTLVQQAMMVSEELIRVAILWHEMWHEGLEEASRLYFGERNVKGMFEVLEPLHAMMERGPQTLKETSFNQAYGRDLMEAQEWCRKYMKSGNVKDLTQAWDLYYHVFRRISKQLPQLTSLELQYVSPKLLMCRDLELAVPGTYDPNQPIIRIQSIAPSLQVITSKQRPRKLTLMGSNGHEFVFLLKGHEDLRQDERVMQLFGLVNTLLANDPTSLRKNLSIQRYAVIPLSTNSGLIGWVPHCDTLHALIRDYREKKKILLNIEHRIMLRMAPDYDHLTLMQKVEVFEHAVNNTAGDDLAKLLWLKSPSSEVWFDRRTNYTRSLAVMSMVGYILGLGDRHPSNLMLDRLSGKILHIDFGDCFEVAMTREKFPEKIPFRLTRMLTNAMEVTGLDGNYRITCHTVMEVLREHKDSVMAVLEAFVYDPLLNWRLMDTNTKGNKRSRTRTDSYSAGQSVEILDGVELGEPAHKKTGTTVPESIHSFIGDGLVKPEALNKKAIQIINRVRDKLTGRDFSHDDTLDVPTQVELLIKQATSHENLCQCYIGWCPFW
Sequence of PI3K-α (P42336 whole entry, species assumed): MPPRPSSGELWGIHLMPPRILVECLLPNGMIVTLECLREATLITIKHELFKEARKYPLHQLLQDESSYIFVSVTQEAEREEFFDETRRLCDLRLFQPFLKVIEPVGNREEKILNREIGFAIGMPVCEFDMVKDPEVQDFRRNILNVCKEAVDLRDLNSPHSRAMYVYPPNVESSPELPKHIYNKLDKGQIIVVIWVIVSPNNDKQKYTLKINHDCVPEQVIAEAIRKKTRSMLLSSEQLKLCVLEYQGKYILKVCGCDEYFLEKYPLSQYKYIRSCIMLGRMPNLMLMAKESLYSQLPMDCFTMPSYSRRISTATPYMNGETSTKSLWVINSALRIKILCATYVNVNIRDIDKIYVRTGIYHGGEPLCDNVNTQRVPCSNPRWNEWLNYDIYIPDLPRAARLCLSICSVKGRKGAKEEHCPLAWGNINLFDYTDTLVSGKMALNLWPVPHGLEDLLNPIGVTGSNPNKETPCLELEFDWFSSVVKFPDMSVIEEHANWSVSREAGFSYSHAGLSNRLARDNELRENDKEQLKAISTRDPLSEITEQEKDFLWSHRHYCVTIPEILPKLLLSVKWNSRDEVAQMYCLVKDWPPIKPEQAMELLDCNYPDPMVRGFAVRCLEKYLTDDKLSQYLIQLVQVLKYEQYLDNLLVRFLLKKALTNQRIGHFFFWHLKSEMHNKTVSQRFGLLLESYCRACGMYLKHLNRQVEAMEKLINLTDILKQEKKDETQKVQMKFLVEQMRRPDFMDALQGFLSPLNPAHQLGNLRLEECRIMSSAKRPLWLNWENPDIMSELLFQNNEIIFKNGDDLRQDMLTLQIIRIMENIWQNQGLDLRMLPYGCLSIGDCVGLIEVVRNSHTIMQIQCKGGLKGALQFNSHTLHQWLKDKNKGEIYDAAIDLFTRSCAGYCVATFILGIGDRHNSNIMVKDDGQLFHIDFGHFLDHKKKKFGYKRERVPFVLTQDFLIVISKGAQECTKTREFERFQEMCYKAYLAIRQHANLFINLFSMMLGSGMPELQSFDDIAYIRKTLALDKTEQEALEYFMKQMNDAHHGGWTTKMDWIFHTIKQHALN
Sequence of PI3K-α (P27986 whole entry partner, species assumed): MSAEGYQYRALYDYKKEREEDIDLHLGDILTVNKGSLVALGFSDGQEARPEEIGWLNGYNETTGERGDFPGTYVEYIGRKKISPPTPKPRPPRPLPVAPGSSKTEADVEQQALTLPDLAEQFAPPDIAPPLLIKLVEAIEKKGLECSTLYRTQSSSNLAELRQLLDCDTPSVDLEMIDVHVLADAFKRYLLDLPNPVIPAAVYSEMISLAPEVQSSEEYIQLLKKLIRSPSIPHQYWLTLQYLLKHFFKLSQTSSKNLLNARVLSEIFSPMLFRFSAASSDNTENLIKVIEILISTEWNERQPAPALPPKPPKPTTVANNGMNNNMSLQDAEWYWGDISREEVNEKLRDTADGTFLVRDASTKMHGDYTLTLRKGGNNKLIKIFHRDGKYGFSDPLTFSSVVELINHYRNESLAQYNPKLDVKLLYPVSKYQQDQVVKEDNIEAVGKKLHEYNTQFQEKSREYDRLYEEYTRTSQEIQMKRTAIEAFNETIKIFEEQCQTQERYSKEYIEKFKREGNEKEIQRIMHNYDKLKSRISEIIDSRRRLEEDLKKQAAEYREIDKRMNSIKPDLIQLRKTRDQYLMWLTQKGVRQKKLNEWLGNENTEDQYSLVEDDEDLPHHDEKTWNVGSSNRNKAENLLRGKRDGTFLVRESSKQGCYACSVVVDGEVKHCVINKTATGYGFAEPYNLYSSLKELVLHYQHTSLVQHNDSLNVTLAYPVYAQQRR
Sequence of PI3K-γ (P48736 whole entry, species assumed): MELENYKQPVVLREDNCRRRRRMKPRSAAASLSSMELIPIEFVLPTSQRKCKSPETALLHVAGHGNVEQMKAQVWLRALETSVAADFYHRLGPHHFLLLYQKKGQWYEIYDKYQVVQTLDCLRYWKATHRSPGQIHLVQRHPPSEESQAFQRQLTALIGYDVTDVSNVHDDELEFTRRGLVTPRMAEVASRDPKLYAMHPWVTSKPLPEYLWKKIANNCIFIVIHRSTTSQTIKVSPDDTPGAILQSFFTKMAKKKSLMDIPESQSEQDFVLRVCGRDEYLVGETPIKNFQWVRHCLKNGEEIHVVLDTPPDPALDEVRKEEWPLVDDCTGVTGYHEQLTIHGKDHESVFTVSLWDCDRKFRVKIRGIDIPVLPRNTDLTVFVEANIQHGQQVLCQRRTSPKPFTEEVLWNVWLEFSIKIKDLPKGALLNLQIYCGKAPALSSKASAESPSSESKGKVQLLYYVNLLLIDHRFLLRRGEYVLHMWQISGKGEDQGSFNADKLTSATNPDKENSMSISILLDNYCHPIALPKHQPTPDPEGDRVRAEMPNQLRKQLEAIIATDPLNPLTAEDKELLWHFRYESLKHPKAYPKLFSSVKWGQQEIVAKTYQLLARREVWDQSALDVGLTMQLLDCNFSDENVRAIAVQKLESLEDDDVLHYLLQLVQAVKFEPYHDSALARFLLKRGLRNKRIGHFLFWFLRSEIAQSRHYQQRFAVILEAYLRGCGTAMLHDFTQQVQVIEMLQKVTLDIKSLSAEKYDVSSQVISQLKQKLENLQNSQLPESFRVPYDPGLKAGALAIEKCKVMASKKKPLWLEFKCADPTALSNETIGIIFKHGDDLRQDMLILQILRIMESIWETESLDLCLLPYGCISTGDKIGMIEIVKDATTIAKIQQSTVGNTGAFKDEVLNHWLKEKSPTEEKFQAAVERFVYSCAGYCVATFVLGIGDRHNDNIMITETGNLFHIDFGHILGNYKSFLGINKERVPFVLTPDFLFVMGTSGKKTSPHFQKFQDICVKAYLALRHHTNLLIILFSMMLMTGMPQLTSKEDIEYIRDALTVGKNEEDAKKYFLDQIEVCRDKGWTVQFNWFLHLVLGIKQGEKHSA

Usually IC50 stands for the concentration that inhibits the measured activity by half. For `O=C(Nc1ccncc1)Nc1ccc(-c2nc(OCCN3CCCCC3)nc(N3CC4CCC(C3)O4)n2)cc1` [Example 144, 1-{4-[4-(8-oxa-3-azabicyclo[3.2.1]oct-3-yl)-6-(2-piperidin-1-ylethoxy)-1,3,5-triazin-2-yl]phenyl}-3-pyridin-4-ylurea], the IC50 in assay [1] worked out at 1500 nM.

Turning to `O=C(Nc1ccc(-c2nc(N3C4CCC3COC4)nc(N3C4CCC3COC4)n2)cc1)N1CCNCC1` [Example 286, N-[4-(4,6-di-3-oxa-8-azabicyclo[3.2.1]oct-8-yl-1,3,5-triazin-2-yl)phenyl]piperazine-1-carboxamide], the IC50 in assay [1] is 32000 nM; at PI3K-α it was 4200 nM.

On to `CC(C)N1CCN(C(=O)c2ccc(NC(=O)Nc3ccc(-c4nc(C5CCOCC5)nc(N5C6CCC5COC6)n4)cc3)cc2)CC1` [Example 439, 1-(4-(4-(3-oxa-8-azabicyclo[3.2.1]octan-8-yl)-6-(tetrahydro-2H-pyran-4-yl)-1,3,5-triazin-2-yl)phenyl)-3-(4-(4-isopropylpiperazine-1-carbonyl)phenyl)urea], for which the IC50 in assay [1] is 1 nM.

For the compound `O=C(Nc1ccc(C(=O)N2CCC(N3CCCC3)CC2)cc1)Nc1ccc(-c2nc(N3CCOCC3)nc(N3C4CCCC3COC4)n2)cc1` [Example 800, 1-{4-[4-morpholin-4-yl-6-(3-oxa-9-azabicyclo[3.3.1]non-9-yl)-1,3,5-triazin-2-yl]phenyl}-3-{4-[(4-pyrrolidin-1-ylpiperidin-1-yl)carbonyl]phenyl}urea], the IC50 on Human mTOR (FLAG-TOR) was 0.72 nM; in assay [2], 11 nM; in assay [3] (MDA-MB-361, 72 h), 1 nM; at PI3K-γ, 35.5 nM; at PI3K-α it was 5.5 nM.

Consider `CN1CCCC1CCNC(=O)c1ccc(NC(=O)Nc2ccc(-c3nc(N4CCOCC4)nc(N4C5CCCC4COC5)n3)cc2)cc1` (stereo not shown) [Example 801, N-[2-(1-methylpyrrolidin-2-yl)ethyl]-4-[({4-[4-morpholin-4-yl-6-(3-oxa-9-azabicyclo[3.3.1]non-9-yl)-1,3,5-triazin-2-yl]phenyl}carbamoyl)amino]benzamide], for which the IC50 on Human mTOR (FLAG-TOR) came out at 0.455 nM; in assay [2], 32 nM; in assay [3] (72 h) it was 3 nM; on PI3K-γ, 38 nM; on PI3K-α, 5 nM.

With `CNCCN(C)C(=O)c1ccc(NC(=O)Nc2ccc(-c3nc(N4CCOCC4)nc(N4C5CCCC4COC5)n3)cc2)cc1` [Example 802, N-methyl-N-[2-(methylamino)ethyl]-4-[({4-[4-morpholin-4-yl-6-(3-oxa-9-azabicyclo[3.3.1]non-9-yl)-1,3,5-triazin-2-yl]phenyl}carbamoyl)amino]benzamide], the IC50 at Human mTOR (FLAG-TOR) stood at 0.675 nM; in assay [2], 50 nM; in assay [3] (72 h) it was 3 nM; at PI3K-γ, 23 nM; at PI3K-α it was 3.5 nM.

On to `CCN1CCN(C(=O)c2ccc(NC(=O)Nc3ccc(-c4nc(N5CCOCC5)nc(N5C6CCC5COC6)n4)cc3)cc2)CC1` [Example 803, 1-{4-[(4-ethylpiperazin-1-yl)carbonyl]phenyl}-3-{4-[4-morpholin-4-yl-6-(3-oxa-8-azabicyclo[3.2.1]oct-8-yl)-1,3,5-triazin-2-yl]phenyl}urea], for which the IC50 at Human mTOR (FLAG-TOR) amounted to 0.19 nM; in assay [2], 6 nM; in assay [3] (MDA-MB-361, 72 h) it was 1 nM; on PI3K-γ, 29 nM; at PI3K-α it was 3 nM.

On to `CCN1CCN(C(=O)c2ccc(NC(=O)Nc3ccc(-c4nc(N5CCOCC5)nc(N5C6CCCC5COC6)n4)cc3)cc2)CC1` [Example 804, 1-{4-[(4-ethylpiperazin-1-yl)carbonyl]phenyl}-3-{4-[4-morpholin-4-yl-6-(3-oxa-9-azabicyclo[3.3.1]non-9-yl)-1,3,5-triazin-2-yl]phenyl}urea], for which the IC50 amounted to 0.425 nM at Human mTOR (FLAG-TOR); 11 nM in assay [2]; 3 nM in assay [3] (MDA-MB-361, 72 h); 59.5 nM at PI3K-γ; 6 nM at PI3K-α.

Consider `CCN1CCN(C(=O)c2ccc(NC(=O)Nc3ccc(-c4nc(N5CCOCC5)nc(N5C6COCC5COC6)n4)cc3)cc2)CC1` [Example 806, 1-{4-[4-(3,7-dioxa-9-azabicyclo[3.3.1]non-9-yl)-6-morpholin-4-yl-1,3,5-triazin-2-yl]phenyl}-3-{4-[(4-ethylpiperazin-1-yl)carbonyl]phenyl}urea], for which the 50% inhibitory concentration (IC50) on Human mTOR (FLAG-TOR) is 0.24 nM; in assay [2] it was 9 nM; in assay [3] (MDA-MB-361, 72 h), less than 3.2 nM; on PI3K-γ it was 47 nM; on PI3K-α, 4.5 nM.

Consider `CN(C)C1CCN(C(=O)c2ccc(NC(=O)Nc3ccc(-c4nc(N5CCOCC5)nc(N5CC6CCC5CO6)n4)cc3)cc2)CC1` (stereo not shown) [Example 810, 1-(4-{[4-(dimethylamino)piperidin-1-yl]carbonyl}phenyl)-3-{4-[4-morpholin-4-yl-6-(2-oxa-5-azabicyclo[2.2.2]oct-5-yl)-1,3,5-triazin-2-yl]phenyl}urea], for which the IC50 is 2.05 nM at Human mTOR (FLAG-TOR); 26 nM in assay [2]; 2 nM in assay [3] (MDA-MB-361, 72 h); 30.5 nM on PI3K-γ; 2.8 nM on PI3K-α.

Turning to `CC(C)N1CCN(C(=O)c2ccc(NC(=O)Nc3ccc(-c4nc(N5CCOCC5)nc(N5CC6CCC5CO6)n4)cc3)cc2)CC1` (stereo not shown) [Example 811, 1-(4-{[4-(1-methylethyl)piperazin-1-yl]carbonyl}phenyl)-3-{4-[4-morpholin-4-yl-6-(2-oxa-5-azabicyclo[2.2.2]oct-5-yl)-1,3,5-triazin-2-yl]phenyl}urea], the IC50 on Human mTOR (FLAG-TOR) was 1.5 nM; in assay [2], 19 nM; in assay [3] (MDA-MB-361, 72 h), 2 nM; on PI3K-γ, 33.5 nM; on PI3K-α, 3.2 nM.

With `CCN1CCN(C(=O)c2ccc(NC(=O)Nc3ccc(-c4nc(N5CCOCC5)nc(N5CC6CCC5CO6)n4)cc3)cc2)CC1` (stereo not shown) [Example 812, 1-{4-[(4-ethylpiperazin-1-yl)carbonyl]phenyl}-3-{4-[4-morpholin-4-yl-6-(2-oxa-5-azabicyclo[2.2.2]oct-5-yl)-1,3,5-triazin-2-yl]phenyl}urea], the IC50 amounted to 2 nM on Human mTOR (FLAG-TOR); 23 nM in assay [2]; 3 nM in assay [3] (MDA-MB-361, 72 h); 30.5 nM at PI3K-γ; 2.8 nM on PI3K-α.

Regarding `CN1CCN(C(=O)c2ccc(NC(=O)Nc3ccc(-c4nc(N5CCOCC5)nc(N5CC6CCC5CO6)n4)cc3)cc2)CC1` (stereo not shown) [Example 813, 1-{4-[(4-methylpiperazin-1-yl)carbonyl]phenyl}-3-{4-[4-morpholin-4-yl-6-(2-oxa-5-azabicyclo[2.2.2]oct-5-yl)-1,3,5-triazin-2-yl]phenyl}urea], the 50% inhibitory concentration (IC50) on Human mTOR (FLAG-TOR) was 1.9 nM; in assay [2], 24 nM; in assay [3] (MDA-MB-361, 72 h), less than 3.2 nM; on PI3K-γ, 30 nM; on PI3K-α, 3.1 nM.

On to `O=C(Nc1ccc(C(=O)N2CCNCC2)cc1)Nc1ccc(-c2nc(N3CCOCC3)nc(N3CC4CCC3CO4)n2)cc1` (stereo not shown) [Example 814, 1-{4-[4-morpholin-4-yl-6-(2-oxa-5-azabicyclo[2.2.2]oct-5-yl)-1,3,5-triazin-2-yl]phenyl}-3-[4-(piperazin-1-ylcarbonyl)phenyl]urea], for which the IC50 on Human mTOR (FLAG-TOR) worked out at 1.05 nM; in assay [2], 37 nM; in assay [3] (MDA-MB-361, 72 h) it was 4 nM; at PI3K-γ it was 10 nM; at PI3K-α it was 0.8 nM.

Take `CN(C)CCNC(=O)c1ccc(NC(=O)Nc2ccc(-c3nc(N4CCOCC4)nc(N4CC5CCC4CO5)n3)cc2)cc1` (stereo not shown) [Example 815, N-[2-(dimethylamino)ethyl]-4-[({4-[4-morpholin-4-yl-6-(2-oxa-5-azabicyclo[2.2.2]oct-5-yl)-1,3,5-triazin-2-yl]phenyl}carbamoyl)amino]benzamide]: the IC50 on Human mTOR (FLAG-TOR) stood at 0.765 nM; in assay [2], 24 nM; in assay [3] (72 h) it was 3 nM; at PI3K-γ, 24 nM; at PI3K-α, 1.9 nM.

As for `CN(C)CCN(C)C(=O)c1ccc(NC(=O)Nc2ccc(-c3nc(N4CCOCC4)nc(N4CC5CCC4CO5)n3)cc2)cc1` (stereo not shown) [Example 816, N-[2-(dimethylamino)ethyl]-N-methyl-4-[({4-[4-morpholin-4-yl-6-(2-oxa-5-azabicyclo[2.2.2]oct-5-yl)-1,3,5-triazin-2-yl]phenyl}carbamoyl)amino]benzamide], the concentration for half-maximal inhibition (IC50) on Human mTOR (FLAG-TOR) came to 1.06 nM; in assay [2], 11 nM; in assay [3] (72 h), 2 nM; on PI3K-γ it was 26 nM; at PI3K-α, 2.4 nM.

Consider `O=C(Nc1ccncc1)Nc1ccc(-c2nc(N3CCOCC3)nc(N3C4COCC3[C@@H](O)C4)n2)cc1` (stereo partly drawn) [Example 818, 1-(4-{4-[(6S)-6-hydroxy-3-oxa-8-azabicyclo[3.2.1]oct-8-yl]-6-morpholin-4-yl-1,3,5-triazin-2-yl}phenyl)-3-pyridin-4-ylurea], for which the IC50 at Human mTOR (FLAG-TOR) amounted to 2 nM; in assay [2] it was 237 nM; in assay [3] (72 h), 129 nM; on PI3K-γ, 185 nM; on PI3K-α, 37.7 nM.

For `O=C(Nc1ccncc1)Nc1ccc(-c2nc(N3CCOCC3)nc(N3C4COCC3C(OCc3ccccc3)C4)n2)cc1` (stereo not shown) [Example 819, 1-(4-{4-[6-(benzyloxy)-3-oxa-8-azabicyclo[3.2.1]oct-8-yl]-6-morpholin-4-yl-1,3,5-triazin-2-yl}phenyl)-3-pyridin-4-ylurea], the IC50 at Human mTOR (FLAG-TOR) turned out to be 17 nM; in assay [2] it was 768 nM; in assay [3] (72 h), 442 nM; on PI3K-γ, 358 nM; at PI3K-α, 44 nM.

Values taken from patent US20090304692A1, “TRIAZINE COMPOUNDS AS PI3 KINASE AND MTOR INHIBITORS” (Wyeth, priority 2008, published 2009).
